Data on two molecules can be found in US20110294782A1, “SMALL MOLECULE PAK INHIBITORS” (Massachusetts Institute of Technology, priority 2006, published 2011).

The target of one experiment is PAK4 (Homo sapiens, UniProt O96013). Kind of experiment: biochemical.
A further experiment has as its target T1, PAK7 (Homo sapiens, UniProt Q9P286).
T1 construct: full length PAK or a PAK catalytic domain expressed on the surface of T7 bacteriophage; host or cells: T7 phage (modified T7 Select 10-3) grown in a BL21-derived E. coli host
Kind of experiment: Competitive binding assay (Ambit), phage-displayed PAK vs immobilized staurosporine bait. As to conditions: 25° C., 1 hour, 0.1% DMSO, read-out: Kd value, Test PAK Inhibitor Affinity Assay. An excerpt:
(§1) Binding data were fit to the equation:
(§2) PFU=L+((H−L)*(Kd(test)/(Kd(test)+[candidate])))

The next experiment addresses T2, PAK6 (Homo sapiens, UniProt Q9NQU5).
T2 construct: full length PAK or a PAK catalytic domain expressed on the surface of T7 bacteriophage; host or cells: T7 phage (modified T7 Select 10-3) grown in a BL21-derived E. coli host
The description is as above. As to conditions: 25° C., 1 hour, 0.1% DMSO, read-out: Kd value, Test PAK Inhibitor Affinity Assay.
Text: as §1, §2

The target in another experiment is T3, PAK1 (Homo sapiens, UniProt Q13153).
T3 construct: full length PAK or a PAK catalytic domain expressed on the surface of T7 bacteriophage; host or cells: T7 phage (modified T7 Select 10-3) grown in a BL21-derived E. coli host
The experiment is described as above.
Text: as §1, §2

In a further experiment the target is T4, PAK2 (Homo sapiens, UniProt Q13177).
T4 construct: full length PAK or a PAK catalytic domain expressed on the surface of T7 bacteriophage; host or cells: T7 phage (modified T7 Select 10-3) grown in a BL21-derived E. coli host
The experiment is described as above.
Text: as §1, §2

Read-outs that look alike come from different tables or passages of the source. A value given as a limit tells only on which side of the number the result lay.

T3 sequence (Q13153 whole entry, the tested form may be a part): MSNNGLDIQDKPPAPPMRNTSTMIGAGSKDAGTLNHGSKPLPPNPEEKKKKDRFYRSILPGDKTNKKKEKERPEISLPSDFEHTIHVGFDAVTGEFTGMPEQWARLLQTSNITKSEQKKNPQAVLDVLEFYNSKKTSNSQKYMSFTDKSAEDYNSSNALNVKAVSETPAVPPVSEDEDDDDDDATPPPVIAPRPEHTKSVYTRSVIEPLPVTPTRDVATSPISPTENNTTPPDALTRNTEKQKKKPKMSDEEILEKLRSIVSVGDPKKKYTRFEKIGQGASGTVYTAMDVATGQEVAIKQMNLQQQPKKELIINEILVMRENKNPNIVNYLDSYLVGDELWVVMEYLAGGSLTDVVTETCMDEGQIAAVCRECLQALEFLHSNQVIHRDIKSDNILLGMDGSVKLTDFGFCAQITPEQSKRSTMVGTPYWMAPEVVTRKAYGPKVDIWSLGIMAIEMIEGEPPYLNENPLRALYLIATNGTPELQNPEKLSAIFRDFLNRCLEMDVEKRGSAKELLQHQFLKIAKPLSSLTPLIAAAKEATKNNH
T2 sequence (Q9NQU5 whole entry, the tested form may be a part): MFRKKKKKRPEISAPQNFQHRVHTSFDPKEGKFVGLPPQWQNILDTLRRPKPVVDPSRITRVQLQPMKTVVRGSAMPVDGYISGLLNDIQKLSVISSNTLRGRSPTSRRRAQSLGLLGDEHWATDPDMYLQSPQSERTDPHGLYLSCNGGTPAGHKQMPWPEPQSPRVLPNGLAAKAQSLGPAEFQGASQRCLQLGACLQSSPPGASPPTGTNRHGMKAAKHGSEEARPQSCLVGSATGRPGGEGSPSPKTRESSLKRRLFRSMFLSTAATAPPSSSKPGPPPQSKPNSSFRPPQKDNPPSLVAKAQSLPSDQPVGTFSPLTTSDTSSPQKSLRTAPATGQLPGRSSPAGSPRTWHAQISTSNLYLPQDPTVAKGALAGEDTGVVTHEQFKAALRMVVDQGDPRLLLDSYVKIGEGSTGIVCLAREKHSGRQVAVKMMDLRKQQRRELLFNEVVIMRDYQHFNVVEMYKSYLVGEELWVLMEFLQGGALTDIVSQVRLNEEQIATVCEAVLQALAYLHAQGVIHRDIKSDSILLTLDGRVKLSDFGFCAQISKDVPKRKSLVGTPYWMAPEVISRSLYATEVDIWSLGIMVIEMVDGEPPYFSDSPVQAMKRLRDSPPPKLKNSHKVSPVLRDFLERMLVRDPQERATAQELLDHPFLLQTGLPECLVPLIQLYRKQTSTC
T4 sequence (Q13177 whole entry, the tested form may be a part): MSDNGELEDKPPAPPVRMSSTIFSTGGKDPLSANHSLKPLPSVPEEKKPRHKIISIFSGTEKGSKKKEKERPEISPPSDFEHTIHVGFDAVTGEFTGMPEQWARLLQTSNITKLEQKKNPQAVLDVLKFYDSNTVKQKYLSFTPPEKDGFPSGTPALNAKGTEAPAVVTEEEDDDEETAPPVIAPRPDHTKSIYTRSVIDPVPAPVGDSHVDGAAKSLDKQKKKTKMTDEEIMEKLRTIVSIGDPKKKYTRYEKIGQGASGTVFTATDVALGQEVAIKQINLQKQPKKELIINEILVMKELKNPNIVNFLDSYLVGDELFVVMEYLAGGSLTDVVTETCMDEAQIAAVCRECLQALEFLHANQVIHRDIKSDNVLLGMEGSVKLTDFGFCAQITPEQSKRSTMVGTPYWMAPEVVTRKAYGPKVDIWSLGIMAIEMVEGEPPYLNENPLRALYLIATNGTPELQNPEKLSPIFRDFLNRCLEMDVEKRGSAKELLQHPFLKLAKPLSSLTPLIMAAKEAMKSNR
T1 sequence (Q9P286 whole entry, the tested form may be a part): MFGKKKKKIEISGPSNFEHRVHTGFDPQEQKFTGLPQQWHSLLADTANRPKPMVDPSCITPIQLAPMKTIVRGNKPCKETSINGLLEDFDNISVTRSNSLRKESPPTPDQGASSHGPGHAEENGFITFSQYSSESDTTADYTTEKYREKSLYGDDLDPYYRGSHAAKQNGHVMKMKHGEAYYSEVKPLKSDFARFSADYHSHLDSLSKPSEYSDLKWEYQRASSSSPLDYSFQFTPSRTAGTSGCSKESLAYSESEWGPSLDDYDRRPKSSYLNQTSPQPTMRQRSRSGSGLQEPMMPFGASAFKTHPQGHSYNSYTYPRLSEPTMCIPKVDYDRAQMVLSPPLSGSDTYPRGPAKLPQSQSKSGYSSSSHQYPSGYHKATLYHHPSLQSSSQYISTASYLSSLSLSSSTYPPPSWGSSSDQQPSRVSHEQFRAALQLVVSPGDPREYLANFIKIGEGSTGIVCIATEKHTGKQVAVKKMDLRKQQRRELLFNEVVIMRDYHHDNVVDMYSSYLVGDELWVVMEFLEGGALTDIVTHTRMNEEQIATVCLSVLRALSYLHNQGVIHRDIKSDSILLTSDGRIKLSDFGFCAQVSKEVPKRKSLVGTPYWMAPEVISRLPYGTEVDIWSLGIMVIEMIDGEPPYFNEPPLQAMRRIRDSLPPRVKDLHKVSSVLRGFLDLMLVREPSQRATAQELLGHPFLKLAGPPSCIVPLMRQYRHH
Chain of PAK4 (O96013 whole entry): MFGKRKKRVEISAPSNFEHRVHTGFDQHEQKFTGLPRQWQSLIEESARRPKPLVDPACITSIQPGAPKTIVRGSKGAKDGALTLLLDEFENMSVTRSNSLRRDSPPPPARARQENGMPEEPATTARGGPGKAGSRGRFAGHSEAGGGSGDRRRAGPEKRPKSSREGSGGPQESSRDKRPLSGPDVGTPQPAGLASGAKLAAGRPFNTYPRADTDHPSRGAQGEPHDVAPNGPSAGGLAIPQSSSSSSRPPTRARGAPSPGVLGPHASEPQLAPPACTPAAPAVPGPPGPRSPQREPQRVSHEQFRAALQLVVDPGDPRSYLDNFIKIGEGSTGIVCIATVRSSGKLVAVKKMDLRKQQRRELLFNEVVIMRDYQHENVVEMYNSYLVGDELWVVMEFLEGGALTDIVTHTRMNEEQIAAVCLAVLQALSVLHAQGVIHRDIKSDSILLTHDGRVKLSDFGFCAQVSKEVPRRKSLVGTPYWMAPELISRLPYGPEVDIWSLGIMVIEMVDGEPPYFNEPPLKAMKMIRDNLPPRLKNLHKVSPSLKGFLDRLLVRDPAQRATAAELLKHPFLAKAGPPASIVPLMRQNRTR
Experimental for PAK4: When these three components are combined, the test substance is tested for its ability to compete, in a concentration-dependent manner, with the immobilized kinase bait probe for binding for binding to the phage-PAK catalytic domain. Afterwards, the amount of bait probe-bound phage-PAK can be detected, for example, by a phage plaque assay and/or quantitative PCR of phage DNA. The amount of probe-bound phage-PAK is inversely proportional to the affinity of the candidate inhibitor for the kinase and can be used in determining a Kd value of the test substance for the PAK catalytic site, as described below. […]
T7 kinase-tagged phage strains were grown in parallel in 24- or 96-well blocks in an E. coli host derived from the BL21 strain. […] Phage titer in the eluates was measured by standard plaque assays or by quantitative PCR. […]
Kd (probe) is the binding constant for the interaction between the kinase and the immobilized ligand, [Probe] is the concentration of the immobilized ligand [test] ½ is the concentration of the free candidate compound at the midpoint of the transition. […] Under these conditions, binding constants measured for the interaction between kinases and candidate compounds (Kd (test)) are therefore independent of the affinity of the immobilized ligand for the kinase (Kd (probe)). […]

Regarding `CCOc1cc2ncc(C#N)c(Nc3ccc(F)c(Cl)c3)c2cc1NC(=O)/C=C/CN(C)C` [EKB-569], the dissociation constant (Kd) at PAK4 was at least 10 µM; on PAK7 it was at least 10 µM; on PAK6, at least 10 µM; on PAK1 (PAK1, 25° C., 1 hour, 0.1% DMSO, read-out: Kd value, Test PAK Inhibitor Affinity Assay) it was under 5 µM; on PAK2 (PAK2, 25° C., 1 hour, 0.1% DMSO, read-out: Kd value, Test PAK Inhibitor Affinity Assay), at least 10 µM.
Take `Nc1nc(Nc2ccc(S(N)(=O)=O)cc2)nn1C(=O)c1c(F)cccc1F` [JNJ-7706621]: the dissociation constant Kd on PAK6 was under 5 µM; at PAK1 it was at least 10 µM; at PAK2 it was at least 10 µM.
